Source: patent US10519167B2, “3-oxa-8-azabicyclo[3.2.1]octane derivatives and their use in the treatment of cancer and hemoglobinopathies” (CTXT PTY LTD, priority 2016, dated 2019)
Structures can show the parent of a compound that is named as a salt.

Legend:
[1] = molecular target: Full-length PRMT5 enzyme co-expressed with His6-MEP50 (Homo sapiens (Human), UniProt O14744); experiment: PRMT5 Biochemical Assay; details: Transcreener EPIGEN methyltransferase assay, histone H4 derived peptide substrate, 4 hours at 37 degree Celsius
Protocol: Compounds of the invention may be tested for in vitro activity in the following assay:
A histone H4 derived peptide is used as substrate (amino acid sequence: […]NH2). Full-length PRMT5 enzyme (NCBI Reference sequence NP_006100.2) was co-expressed with His6-MEP50 in insect cells and purified via Nickel immobilized metal affinity and gel filtration chromatography (“the enzyme”).
The 6 μL reactions are run in Greiner brand black 384-well low volume assay plates. All reactions contained assay buffer (phosphate buffered saline, 0.01% (v/v) Tween-20, 0.01% (w/v) albumin from chicken egg white, 1 mM Dithiothreitol, 1 μM peptide substrate, 1 μM S-Adenosyl methionine, and 15 ng/reaction enzyme, with the enzyme being omitted from negative control reactions. Compounds were added in a volume of 100 nL from dilution series prepared in DMSO, positive and negative control reactions receiving the same volume DMSO without compound. The plates were sealed with adhesive seals and incubated for 4 hours at 37 degree Celsius. Reaction progress was measured using the Transcreener™ EPIGEN methyltransferase assay (BellBrook Labs, Madison, Wis.) as recommended by the manufacturer. To each reaction 2 μL detection mix were added, containing coupling enzymes, fluorescence polarisation tracer, and AMP antibody. Plates were incubated for 90 minutes before being read on a PerkinElmer EnVision™ plate reader in fluorescence polarisation mode. IC50 values were obtained from the raw readings by calculating percent inhibition (% I) for each reaction relative to controls on the same plate (% I=(I−CN)/(CP−CN) where CN/CP are the averages of the negative/positive reactions, respectively), then fitting the % I data vs. compound concentration [I] to % I=(A+((B−A)/(1+((C/[I]^D)))) where A is the lower asymptote, B is the upper asymptote, C is the IC50 value, and D is the slope.

[2] = tested on: TE11 cell line; experiment: PRMT5 Biomarker Assay (symmetrical dimethylation of arginine, Histone H4 Arginine 3); type: cell-based; details: Homo sapiens, TE-11; TE11 cells, 72 hours incubation, Di-Methyl Histone H4 Arginine 3 level
Protocol: Compounds of the invention may be tested for potency to inhibit symmetrical dimethylation of arginine in the following assay:
The cell line TE11 was seeded at a density of 6,000 cells per well in 96 well optical quality tissue culture plates in DME medium and 10% foetal bovine serum, and allowed to adhere for 5 hours under standard culture conditions (37 degree Celsius, 5% CO2). Compound dilutions prepared in DMSO were added to the medium, with negative control wells reserved for treatment with DMSO only and maximum inhibition controls receiving a potent PRMT5 inhibitor compound at 1 μM concentration. After incubation for 72 hours, the cells were fixed with 3.7% formaldehyde in PBS for 30 minutes at room temperature, washed with phosphate buffer saline and blocked with Odyssey blocking buffer (LI-COR, Lincoln, Nebr.). Rabbit anti-Di-Methyl Histone H4 Arginine 3 specific antibody (Epigentek) in Odyssey blocking buffer was added and incubated for 14 hours at 4 degree Celsius. After washing, anti-rabbit secondary antibody labelled with Alexa647 dye (LifeTechnologies) and Hoechst 33342 (1 μg/mL, SigmaAldrich) were added for 1 hour incubation. Plates were washed and read on a PerkinElmer Envision 2103 in fluorescence intensity scanning mode (24 scans across the well area). The plates were imaged on a PerkinElmer Phenix high content imaging platform. Using a Columbus image analysis pipeline, individual nuclei were located by Hoechst 33342 stain and the methylation level was calculated from the Alexa647-related intensity in the same area. IC50 values were obtained from the mean Alexa647-related intensity per cell by calculating percent inhibition (% I) for each well relative to controls on the same plate (% I=(I−CN)/(CP−CN) where CN/CP are the averages of the negative/maximum inhibition controls, respectively), then fitting the % I data vs. compound concentration [I] to % I=(A+((B−A)/(1+((C/[I])^D)))) where A is the lower asymptote, B is the upper asymptote, C is the IC50 value, and D is the slope.

Full-length PRMT5 enzyme co-expressed with His6-MEP50, sequence (O14744 whole entry): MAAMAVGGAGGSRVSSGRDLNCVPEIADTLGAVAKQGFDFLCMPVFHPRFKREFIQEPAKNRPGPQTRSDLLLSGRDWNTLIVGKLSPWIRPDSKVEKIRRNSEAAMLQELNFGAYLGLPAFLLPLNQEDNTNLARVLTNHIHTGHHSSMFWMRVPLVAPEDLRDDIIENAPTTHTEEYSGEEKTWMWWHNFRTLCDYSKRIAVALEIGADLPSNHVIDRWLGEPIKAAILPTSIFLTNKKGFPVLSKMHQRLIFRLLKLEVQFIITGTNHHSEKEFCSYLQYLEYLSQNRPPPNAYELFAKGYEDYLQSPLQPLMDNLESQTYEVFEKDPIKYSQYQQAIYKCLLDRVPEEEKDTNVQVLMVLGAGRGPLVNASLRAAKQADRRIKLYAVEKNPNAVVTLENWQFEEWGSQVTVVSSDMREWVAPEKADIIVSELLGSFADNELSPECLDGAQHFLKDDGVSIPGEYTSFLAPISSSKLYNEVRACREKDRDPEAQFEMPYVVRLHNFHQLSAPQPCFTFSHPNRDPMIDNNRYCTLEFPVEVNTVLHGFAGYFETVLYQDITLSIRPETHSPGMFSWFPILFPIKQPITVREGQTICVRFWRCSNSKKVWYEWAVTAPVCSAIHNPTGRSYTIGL
Full-length PRMT5 enzyme co-expressed with His6-MEP50, sequence (Q9BQA1 whole entry partner): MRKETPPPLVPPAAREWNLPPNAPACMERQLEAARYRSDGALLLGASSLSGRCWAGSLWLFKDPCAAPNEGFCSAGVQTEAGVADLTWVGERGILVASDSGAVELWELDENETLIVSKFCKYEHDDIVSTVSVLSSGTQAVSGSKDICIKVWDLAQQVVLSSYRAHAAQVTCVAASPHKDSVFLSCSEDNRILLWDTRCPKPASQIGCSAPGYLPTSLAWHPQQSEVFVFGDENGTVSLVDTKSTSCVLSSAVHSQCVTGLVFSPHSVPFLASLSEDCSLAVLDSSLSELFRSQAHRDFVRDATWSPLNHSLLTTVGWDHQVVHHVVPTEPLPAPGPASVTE

| Structure (SMILES) | IC50 [1] [nM] | IC50 [2] [nM] |
| --- | --- | --- |
| CCOc1cc(C(=O)N2C3CCC2COC3)ccc1C(=O)N(C)C[C@@H](O)[C@@H]1Cc2ccccc2CN1 [Compound 3, 4-(3-Oxa-8-azabicyclo[3.2.1]octane-8-carbonyl)-2-ethoxy-N—((R)-2-hydroxy-2-((S)-1,2,3,4-tetrahydroisoquinolin-3-yl)ethyl)-N-methylbenzamide Hydrochloride] | 36 | 11.7 |
| CCOc1cc(C(=O)N2C3COCC2CC(O)C3)ccc1C(=O)NC[C@@H](O)CNC1Cc2ccccc2C1 (stereo partly drawn) [Compound 2, N—((S)-3-((2,3-Dihydro-1H-inden-2-yl)amino)-2-hydroxypropyl)-2-ethoxy-4-(7-hydroxy-3-oxa-9-azabicyclo[3.3.1]nonane-9-carbonyl)benzamide] | 19 | 0.6 |
| CCOc1cc(C(=O)N2C3COCC2CC(O)C3)ccc1C(=O)NC[C@@H](O)[C@@H]1Cc2ccccc2CN1 (stereo partly drawn) [Compound 1, 2-Ethoxy-N—((R)-2-hydroxy-2-((S)-1,2,3,4-tetrahydroisoquinolin-3-yl)ethyl)-4-(7-hydroxy-3-oxa-9-azabicyclo[3.3.1]nonane-9-carbonyl)benzamide Hydrochloride] | 19 | 3.9 |
